What was measured:
Format in all cases: functional
[1] = test system: Human immunodeficiency virus 1; assay: Antiviral activity against HIV1 harboring wild type regulatory protein rev isolated from patient with viral infection assessed as viral RNA count after 48 weeks (reference value: 4.9/ml)
[2] = test system: Human immunodeficiency virus 1; assay: Antiviral activity against HIV1 harboring E57A mutant regulatory protein rev isolated from patient with viral infection assessed as viral RNA count after 48 weeks (reference value: 4.9/ml)
[3] = test system: Human immunodeficiency virus 1; assay: Antiviral activity against HIV1 harboring wild type regulatory protein rev isolated from patient with viral infection assessed as change in viral RNA count after 48 weeks relative to control
[4] = test system: Human immunodeficiency virus 1; assay: Antiviral activity against HIV1 harboring E57A mutant regulatory protein rev isolated from patient with viral infection assessed as change in viral RNA count after 48 weeks relative to control
[5] = test system: Human immunodeficiency virus 1; assay: Antiviral activity against HIV1 harboring wild type regulatory protein rev isolated from patient with viral infection assessed as CD4 cell count after 48 weeks (reference value: 146/ul)
[6] = test system: Human immunodeficiency virus 1; assay: Antiviral activity against HIV1 harboring E57A mutant regulatory protein rev isolated from patient with viral infection assessed as CD4 cell count after 48 weeks (reference value: 176/ul)
[7] = test system: Human immunodeficiency virus 1; assay: Antiviral activity against HIV1 harboring wild type regulatory protein rev isolated from patient with viral infection assessed as change in CD4 cell count after 48 weeks relative to control
[8] = test system: Human immunodeficiency virus 1; assay: Antiviral activity against HIV1 harboring E57A mutant regulatory protein rev isolated from patient with viral infection assessed as change in CD4 cell count after 48 weeks relative to control

## enfuvirtide
[1]
  Activity: 4.4 log10 copies/mL
[2]
  Activity: 5.4 log10 copies/mL
[3]
  fold change (FC): -0.84
[4]
  fold change (FC): 0.93
[5]
  CD4 count: 192 cells/µL
[6]
  CD4 count: 104 cells/µL
[7]
  fold change (FC): 56
[8]
  fold change (FC): -42

Source: ChEMBL document CHEMBL1649129, “Treatment with the fusion inhibitor enfuvirtide influences the appearance of mutations in the human immunodeficiency virus type 1 regulatory protein rev” (2009)
